Values of other authors in patent US9227980B2, “Methods for the purification of cucurbituril” (CAMBRIDGE ENTERPRISE LIMITED, priority 2009, dated 2016).

| SMILES | solubility in water (qualitative) |
| --- | --- |
| O=C1N2CN3C(=O)N4CN5C(=O)N6CN7C(=O)N8CN9C(=O)N%10CN1C1C2N2CN%11C(=O)N(CN%12C(=O)N(CN%13C(=O)N(CN%14C(=O)N(CN1C2=O)C%10C9%14)C8C7%13)C6C5%12)C4C3%11 (centres unmarked) [CB[5]] | soluble in water |
| O=C1N2CN3C(=O)N4CN5C(=O)N6CN7C(=O)N8CN9C(=O)N%10CN%11C(=O)N%12CN1C1C2N2CN%13C(=O)N(CN%14C(=O)N(CN%15C(=O)N(CN%16C(=O)N(CN%17C(=O)N(CN1C2=O)C%12C%11%17)C%10C9%16)C8C7%15)C6C5%14)C4C3%13 (centres unmarked) [CB[6]] | are not |
